Tested on: MV-4-11 cells
Assay: Gene expression microarray analysis (Affymetrix PrimeView) and GSEA
Format: cell-based, human
Design: RFU PODN (11730768_x_at) / Fold change /veh PODN (11730768_x_at) / RFU LINC00158 (11744669_a_at) / Fold change /veh LINC00158 (11744669_a_at) / RFU DUSP10 (11751237_a_at) / Fold change /veh DUSP10 (11751237_a_at) / RFU ID3 (11757404_x_at) / Fold change /veh ID3 (11757404_x_at) / RFU PLEKHG5 (11737974_s_at) / Fold change /veh PLEKHG5 (11737974_s_at) / RFU LRRC4B (11730491_at) / Fold change /veh LRRC4B (11730491_at) / RFU GIMAP4 (11747438_a_at) / Fold change /veh GIMAP4 (11747438_a_at) / RFU KRT8 (11758183_x_at) / Fold change /veh KRT8 (11758183_x_at) / RFU CNN1 (11734310_a_at) / Fold change /veh CNN1 (11734310_a_at) / RFU VPS37D (11726825_at) / Fold change /veh VPS37D (11726825_at) / RFU C10orf10 (11716522_x_at) / Fold change /veh C10orf10 (11716522_x_at) / RFU KIR2DL2 /// KIR2DL4 /// KIR2DL5A /// KIR2DL5B /// KIR2DS1 /// KIR2DS2 /// KIR2DS3 /// KIR2DS4 /// KIR3DL3 /// KIR3DL3 /// KIR3DS1 (11738374_at) / Fold change /veh KIR2DL2 /// KIR2DL4 /// KIR2DL5A /// KIR2DL5B /// KIR2DS1 /// KIR2DS2 /// KIR2DS3 /// KIR2DS4 /// KIR3DL3 /// KIR3DL3 /// KIR3DS1 (11738374_at) / RFU C1QL1 (11718748_at) / Fold change /veh C1QL1 (11718748_at) / RFU TMPRSS4 (11747572_a_at) / Fold change /veh TMPRSS4 (11747572_a_at) / RFU HAMP (11756126_x_at) / Fold change /veh HAMP (11756126_x_at) / RFU RNFT2 (11725882_a_at) / Fold change /veh RNFT2 (11725882_a_at) / RFU NR4A2 (11747474_a_at) / Fold change /veh NR4A2 (11747474_a_at) / RFU ABCC12 (11746883_a_at) / Fold change /veh ABCC12 (11746883_a_at) / RFU TMEM136 (11760407_x_at) / Fold change /veh TMEM136 (11760407_x_at) / RFU CLDN22 /// WWC2 (11732394_at) / Fold change /veh CLDN22 /// WWC2 (11732394_at) / RFU HLA-DPB1 (11760878_x_at) / Fold change /veh HLA-DPB1 (11760878_x_at) / RFU SPINT1 (11716480_a_at) / Fold change /veh SPINT1 (11716480_a_at) / RFU GAP43 (11754022_s_at) / Fold change /veh GAP43 (11754022_s_at) / RFU A4GNT (11735810_at) / Fold change /veh A4GNT (11735810_at) / RFU PRB3 (11715151_x_at) / Fold change /veh PRB3 (11715151_x_at) / RFU TUBB4B (11761932_at) / Fold change /veh TUBB4B (11761932_at) / RFU CAPN14 (11732068_a_at) / Fold change /veh CAPN14 (11732068_a_at) / RFU TMCC2 (11721928_a_at) / Fold change /veh TMCC2 (11721928_a_at) / RFU IRGQ (11745062_a_at) / Fold change /veh IRGQ (11745062_a_at) / RFU FAM174B (11720279_a_at) / Fold change /veh FAM174B (11720279_a_at) / RFU TMPRSS4 (11748680_a_at) / Fold change /veh TMPRSS4 (11748680_a_at) / RFU FAM212B (11763350_a_at) / Fold change /veh FAM212B (11763350_a_at) / RFU PLEKHG5 (11743358_a_at) / Fold change /veh PLEKHG5 (11743358_a_at) / RFU ZSCAN30 (11745921_a_at) / Fold change /veh ZSCAN30 (11745921_a_at) / RFU CMKLR1 (11741424_a_at) / Fold change /veh CMKLR1 (11741424_a_at) / RFU LOC101060620 /// MAPK8IP1 (11723275_at) / Fold change /veh LOC101060620 /// MAPK8IP1 (11723275_at) / RFU SPTSSB (11747773_x_at) / Fold change /veh SPTSSB (11747773_x_at) / RFU PRSS12 (11739890_at) / Fold change /veh PRSS12 (11739890_at) / RFU BIN1 (11741810_x_at) / Fold change /veh BIN1 (11741810_x_at) / RFU WNT11 (11732464_a_at) / Fold change /veh WNT11 (11732464_a_at) / RFU C10orf10 (11716521_a_at) / Fold change /veh C10orf10 (11716521_a_at) / RFU C5orf56 (11738089_at) / Fold change /veh C5orf56 (11738089_at) / RFU CYB561 (11721691_x_at) / Fold change /veh CYB561 (11721691_x_at) / RFU ANKRD19P (11752326_a_at) / Fold change /veh ANKRD19P (11752326_a_at) / RFU OR2T12 /// OR2T33 /// OR2T8 (11738714_s_at) / Fold change /veh OR2T12 /// OR2T33 /// OR2T8 (11738714_s_at) / RFU VCAN (11748164_a_at) / Fold change /veh VCAN (11748164_a_at) / RFU JSRP1 (11732532_at) / Fold change /veh JSRP1 (11732532_at) / RFU KRTAP10-11 (11738290_x_at) / Fold change /veh KRTAP10-11 (11738290_x_at) / RFU MYO3A (11730013_a_at) / Fold change /veh MYO3A (11730013_a_at) / RFU EBF3 (11725865_a_at) / Fold change /veh EBF3 (11725865_a_at) / RFU CAMK2N1 (11719241_x_at) / Fold change /veh CAMK2N1 (11719241_x_at) / RFU C5orf56 (11738088_a_at) / Fold change /veh C5orf56 (11738088_a_at) / RFU OLFML3 (11715873_a_at) / Fold change /veh OLFML3 (11715873_a_at) / RFU LOC100653217 /// NTM (11731650_a_at) / Fold change /veh LOC100653217 /// NTM (11731650_a_at) / RFU MAPK11 (11762145_a_at) / Fold change /veh MAPK11 (11762145_a_at) / RFU FIZ1 (11724087_x_at) / Fold change /veh FIZ1 (11724087_x_at) / RFU OASL (11726364_x_at) / Fold change /veh OASL (11726364_x_at) / RFU SOX15 (11748057_x_at) / Fold change /veh SOX15 (11748057_x_at) / RFU CD79A (11719716_a_at) / Fold change /veh CD79A (11719716_a_at) / RFU HIST1H1D (11736915_at) / Fold change /veh HIST1H1D (11736915_at) / RFU CASKIN2 (11723855_a_at) / Fold change /veh CASKIN2 (11723855_a_at) / RFU LOC730098 (11760151_x_at) / Fold change /veh LOC730098 (11760151_x_at) / RFU OR4N2 (11742367_at) / Fold change /veh OR4N2 (11742367_at) / RFU PRRT2 (11749266_a_at) / Fold change /veh PRRT2 (11749266_a_at) / RFU SNX32 (11753110_a_at) / Fold change /veh SNX32 (11753110_a_at) / RFU CDHR5 (11726645_a_at) / Fold change /veh CDHR5 (11726645_a_at) / RFU RCAN1 (11760418_a_at) / Fold change /veh RCAN1 (11760418_a_at) / RFU FAM167A (11723789_a_at) / Fold change /veh FAM167A (11723789_a_at) / RFU FAM26E (11764081_at) / Fold change /veh FAM26E (11764081_at) / RFU ISYNA1 (11749810_s_at) / Fold change /veh ISYNA1 (11749810_s_at) / RFU ACY1 (11761880_at) / Fold change /veh ACY1 (11761880_at) / RFU 11764098_at / Fold change /veh 11764098_at / RFU SAMD14 (11745864_x_at) / Fold change /veh SAMD14 (11745864_x_at) / RFU NPB (11741838_a_at) / Fold change /veh NPB (11741838_a_at) / RFU TMPRSS6 (11731388_a_at) / Fold change /veh TMPRSS6 (11731388_a_at) / RFU KRTAP10-2 (11738614_at) / Fold change /veh KRTAP10-2 (11738614_at) / RFU ARHGAP8 /// PRR5-ARHGAP8 (11727945_x_at) / Fold change /veh ARHGAP8 /// PRR5-ARHGAP8 (11727945_x_at) / RFU KRTAP5-7 /// NADSYN1 (11734609_at) / Fold change /veh KRTAP5-7 /// NADSYN1 (11734609_at) / RFU RASL12 (11751679_a_at) / Fold change /veh RASL12 (11751679_a_at) / RFU CDKN2B (11736163_a_at) / Fold change /veh CDKN2B (11736163_a_at) / RFU PRF1 (11729649_at) / Fold change /veh PRF1 (11729649_at) / RFU, ZNF638 /// ZNF638-IT1 / Fold change vs veh, ZNF638 /// ZNF638-IT1 / RFU, PANK3 / Fold change vs veh, PANK3 / RFU, SH3YL1 / Fold change vs veh, SH3YL1 / RFU, ZEB2 / Fold change vs veh, ZEB2 / RFU, NRIP1 / Fold change vs veh, NRIP1 / RFU, PTTG1IP / Fold change vs veh, PTTG1IP / RFU, CAPN2 / Fold change vs veh, CAPN2 / RFU, MED14 / Fold change vs veh, MED14 / RFU, SNORA58 / Fold change vs veh, SNORA58 / RFU, C1orf63 / Fold change vs veh, C1orf63 / RFU, LRRFIP1 / Fold change vs veh, LRRFIP1 / RFU, NDUFAF7 / Fold change vs veh, NDUFAF7 / RFU, SLC12A2 / Fold change vs veh, SLC12A2 / RFU, IBTK / Fold change vs veh, IBTK / RFU, ESF1 / Fold change vs veh, ESF1 / Fold change vs veh, TMEM50B / RFU, TAOK1 / Fold change vs veh, TAOK1 / RFU, ACBD3 / Fold change vs veh, ACBD3 / RFU, TMA16 / Fold change vs veh, TMA16 / RFU, RWDD3 / Fold change vs veh, RWDD3 / RFU, BCAT1 / Fold change vs veh, BCAT1 / RFU, EDEM3 / Fold change vs veh, EDEM3 / RFU, TMEM33 / Fold change vs veh, TMEM33 / RFU, WDR75 / Fold change vs veh, WDR75 / RFU, AHCTF1 / Fold change vs veh, AHCTF1 / RFU, TFRC / Fold change vs veh, TFRC / RFU, ZDHHC17 / Fold change vs veh, ZDHHC17 / RFU, NOM1 / Fold change vs veh, NOM1 / RFU, ARL8B / Fold change vs veh, ARL8B / RFU, ZBTB11 / Fold change vs veh, ZBTB11 / RFU, TAMM41 / Fold change vs veh, TAMM41 / RFU, KIAA1704 /// LOC100996395 / Fold change vs veh, KIAA1704 /// LOC100996395 / RFU, ING1 / Fold change vs veh, ING1 / RFU, TRMT61B / Fold change vs veh, TRMT61B / RFU, FUBP3 / Fold change vs veh, FUBP3 / RFU, TP53 / Fold change vs veh, TP53 / RFU, TNKS2 / Fold change vs veh, TNKS2 / RFU, ZFP14 / Fold change vs veh, ZFP14 / RFU, ACTR2 / Fold change vs veh, ACTR2 / RFU, PPP3R1 / Fold change vs veh, PPP3R1 / RFU, PIK3R1 / Fold change vs veh, PIK3R1 / RFU, HNRNPA1 / Fold change vs veh, HNRNPA1 / RFU, RNF170 / Fold change vs veh, RNF170 / RFU, ZNF28 / Fold change vs veh, ZNF28 / RFU, RNGTT / Fold change vs veh, RNGTT / RFU, OGT / Fold change vs veh, OGT / RFU, BRD1 / Fold change vs veh, BRD1 / RFU, MARS / Fold change vs veh, MARS / RFU, ZNF655 / Fold change vs veh, ZNF655 / RFU, FAHD1 / Fold change vs veh, FAHD1 / RFU, BDP1 / Fold change vs veh, BDP1 / RFU, LRRCC1 / Fold change vs veh, LRRCC1 / RFU, ARID1A / Fold change vs veh, ARID1A / RFU, ZNF146 / Fold change vs veh, ZNF146 / RFU, ZNF330 / Fold change vs veh, ZNF330 / RFU, GPN3 / Fold change vs veh, GPN3 / RFU, C9orf123 / Fold change vs veh, C9orf123 / RFU, N4BP2L2 / Fold change vs veh, N4BP2L2 / RFU, ARFIP1 / Fold change vs veh, ARFIP1 / RFU, FAM179B / Fold change vs veh, FAM179B / RFU, BCL10 / Fold change vs veh, BCL10 / RFU, UHRF1BP1L / Fold change vs veh, UHRF1BP1L / RFU, BET1 / Fold change vs veh, BET1 / RFU, CNOT2 / Fold change vs veh, CNOT2 / RFU, ZNF268 / Fold change vs veh, ZNF268 / Fold change vs veh, ZNF507 / RFU, DGCR2 / Fold change vs veh, DGCR2 / RFU, WDSUB1 / Fold change vs veh, WDSUB1 / Fold change vs veh, HSP90B1 /// MIR3652 / RFU, ADSS / Fold change vs veh, ADSS / RFU, GK / Fold change vs veh, GK / RFU, ZNF148 / Fold change vs veh, ZNF148 / RFU, TAF9 / Fold change vs veh, TAF9 / RFU, SLC1A5 / Fold change vs veh, SLC1A5 / RFU, SLMO2 / Fold change vs veh, SLMO2 / RFU, ABCC4 / Fold change vs veh, ABCC4 / RFU, LOC101060439 /// RAP1B / Fold change vs veh, LOC101060439 /// RAP1B / RFU, RFX7 / Fold change vs veh, RFX7 / RFU, GTPBP10 / Fold change vs veh, GTPBP10 / RFU, CNEP1R1 / Fold change vs veh, CNEP1R1 / RFU, BIVM-ERCC5 /// ERCC5 / Fold change vs veh, BIVM-ERCC5 /// ERCC5 / RFU, ILF3 / Fold change vs veh, ILF3 / RFU 11762660_at / Fold change /veh 11762660_at / RFU VCAN (11757783_s_at) / Fold change /veh VCAN (11757783_s_at) / RFU DDX43 (11728927_at) / Fold change /veh DDX43 (11728927_at) / RFU KRT8 (11758188_x_at) / Fold change /veh KRT8 (11758188_x_at) / RFU NKD1 (11759106_at) / Fold change /veh NKD1 (11759106_at) / RFU SRD5A1 (11742802_a_at) / Fold change /veh SRD5A1 (11742802_a_at) / RFU TPSAB1 /// TPSB2 (11721975_s_at) / Fold change /veh TPSAB1 /// TPSB2 (11721975_s_at) / RFU GSTM3 (11746129_a_at) / Fold change /veh GSTM3 (11746129_a_at) / RFU IL23R (11737362_x_at) / Fold change /veh IL23R (11737362_x_at) / RFU TMEM51 (11727254_a_at) / Fold change /veh TMEM51 (11727254_a_at) / RFU PIWIL2 (11732686_x_at) / Fold change /veh PIWIL2 (11732686_x_at) / RFU ORM1 (11744905_x_at) / Fold change /veh ORM1 (11744905_x_at) / RFU CCDC152 (11743942_at) / Fold change /veh CCDC152 (11743942_at) / RFU ECM1 (11717891_a_at) / Fold change /veh ECM1 (11717891_a_at) / RFU IL23R (11748794_a_at) / Fold change /veh IL23R (11748794_a_at) / RFU TNFAIP8L3 (11732012_x_at) / Fold change /veh TNFAIP8L3 (11732012_x_at) / RFU MBOAT4 (11741988_at) / Fold change /veh MBOAT4 (11741988_at) / RFU 11764193_at / Fold change /veh 11764193_at / RFU TMEM53 (11763286_at) / Fold change /veh TMEM53 (11763286_at) / RFU MAGEB2 (11727129_at) / Fold change /veh MAGEB2 (11727129_at) / RFU TMEM200A (11744735_a_at) / Fold change /veh TMEM200A (11744735_a_at) / RFU CCDC152 (11751479_a_at) / Fold change /veh CCDC152 (11751479_a_at) / RFU FAM211A (11726209_a_at) / Fold change /veh FAM211A (11726209_a_at) / RFU RGS16 (11746705_a_at) / Fold change /veh RGS16 (11746705_a_at) / RFU VCAN (11755009_s_at) / Fold change /veh VCAN (11755009_s_at) / RFU RHOB (11743442_s_at) / Fold change /veh RHOB (11743442_s_at) / RFU RGS16 (11720943_a_at) / Fold change /veh RGS16 (11720943_a_at) / RFU RGS16 (11720944_at) / Fold change /veh RGS16 (11720944_at) / RFU, VPS4B / Fold change vs veh, VPS4B / RFU, CREB1 / Fold change vs veh, CREB1 / RFU, DNAJC13 / Fold change vs veh, DNAJC13 / RFU, GNAQ / Fold change vs veh, GNAQ / RFU, CDK5R1 / Fold change vs veh, CDK5R1 / RFU, ZRANB3 / Fold change vs veh, ZRANB3 / RFU, CUL4A / Fold change vs veh, CUL4A / RFU, CCNY / Fold change vs veh, CCNY / RFU, UFL1 / Fold change vs veh, UFL1 / RFU, COG3 / Fold change vs veh, COG3 / RFU, DIAPH2 / Fold change vs veh, DIAPH2 / RFU, SKA2 / Fold change vs veh, SKA2 / RFU, AFF3 / Fold change vs veh, AFF3 / RFU, LMF1 / Fold change vs veh, LMF1 / RFU, IPO11 / Fold change vs veh, IPO11 / RFU, DFFB / Fold change vs veh, DFFB / RFU, FOXP1 / Fold change vs veh, FOXP1 / RFU, CARD8 / Fold change vs veh, CARD8 / RFU, STRN3 / Fold change vs veh, STRN3 / RFU, ADK / Fold change vs veh, ADK / RFU, RASSF2 / Fold change vs veh, RASSF2 / RFU, WIPF1 / Fold change vs veh, WIPF1 / RFU, LARP1B / Fold change vs veh, LARP1B / RFU, RASA1 / Fold change vs veh, RASA1 / RFU, RB1 / Fold change vs veh, RB1 / RFU, PPFIA1 / Fold change vs veh, PPFIA1 / RFU, MAT2A / Fold change vs veh, MAT2A / RFU, CCT5 / Fold change vs veh, CCT5 / RFU, WDR92 / Fold change vs veh, WDR92 / RFU, CUX1 / Fold change vs veh, CUX1 / RFU, TTC7A / Fold change vs veh, TTC7A / RFU, TMEM135 / Fold change vs veh, TMEM135 / RFU, DEPTOR / Fold change vs veh, DEPTOR / RFU, CPM / Fold change vs veh, CPM / RFU, DNAJB6 / Fold change vs veh, DNAJB6 / RFU, CACNA2D3 / Fold change vs veh, CACNA2D3 / RFU, DTX4 / Fold change vs veh, DTX4 / RFU, TFCP2 / Fold change vs veh, TFCP2 / RFU, GMCL1 /// GMCL1P1 / Fold change vs veh, GMCL1 /// GMCL1P1 / RFU, AEBP2 / Fold change vs veh, AEBP2 / RFU, SNHG1 /// SNORD22 /// SNORD25 /// SNORD26 /// SNORD27 /// SNORD28 /// SNORD29 /// SNORD31 / Fold change vs veh, SNHG1 /// SNORD22 /// SNORD25 /// SNORD26 /// SNORD27 /// SNORD28 /// SNORD29 /// SNORD31 / Fold change (Aza/veh), C12orf56 (ProbeSet 11735607_a_at) / Fold change (ACY-1035/veh), C12orf56 (ProbeSet 11735607_a_at) / Fold change (Aza/veh), FGFR1OP (ProbeSet 11751329_s_at) / Fold change (ACY-1035/veh), FGFR1OP (ProbeSet 11751329_s_at) / Fold change (Aza/veh), VPS36 (ProbeSet 11739960_a_at) / Fold change (ACY-1035/veh), VPS36 (ProbeSet 11739960_a_at) / RFU SYPL1 (11715823_x_at) / Fold change /veh SYPL1 (11715823_x_at) / RFU IGFBP7 (11715501_s_at) / Fold change /veh IGFBP7 (11715501_s_at) / RFU REEP3 (11722064_at) / Fold change /veh REEP3 (11722064_at) / RFU IGLL1 (11728026_x_at) / Fold change /veh IGLL1 (11728026_x_at): dose or concentration left out as unconfirmed
Conditions: MV-4-11 cells, 48 hours

## Nc1ncn([C@@H]2O[C@H](CO)[C@@H](O)[C@H]2O)c(=O)n1 [azacitidine]
  Fold change /veh TMPRSS6 (11731388_a_at): 1.02
